Laboratory results reported in US10660965B2, “Methods of enhancing drug delivery and effectiveness of therapeutic agents” (priority 2010, dated 2020).

Test system: Patient-derived low passage pancreatic tumor xenografts
Test: Tumor regression in patient-derived pancreatic tumor xenografts
Assay type: in vivo, nude mice
Conditions: 11 xenograft cases; ABI 30 mg/kg i.v. daily x5, GEM 100 mg/kg i.p. twice a week for 4 weeks
Description: Eleven Patient-derived low passage pancreatic tumor xenografts were implanted (s.c) in nude mice. Mice with tumor size of ˜200 mm3 were randomized to four treatment groups (7-10 tumors/group) and treated with 1) Vehicle; 2) Abraxane® (ABI) 30 mg/kg once daily i.v for five consecutive days; 3) Gemcitabine (GEM) 100 mg/kg twice a week for 4 weeks i.p and 4) GEM+ABI in the above mentioned dose and frequency for 4 weeks. Tumor size was measured twice per week using a digital caliper. Number of tumors that regressed more than 50% of its initial size in each tumor xenografts were noted. Extent of stromal desmoplasia and endothelial cell content in control and treated xenografts were determined by Masson's Trichrome staining, IHC and qRTPCR.

Nc1ccn([C@@H]2O[C@H](CO)[C@@H](O)C2(F)F)c(=O)n1 [GEM, gemcitabine]
cases that produced >50% regression of tumor size: 2 of 11
